Measured values taken from patent US20160263155A1, “T CELL RECEPTORS DIRECTED AGAINST THE PREFERENTIALLY EXPRESSED ANTIGEN OF MELANOMA AND USES THEREOF” (LEIDEN UNIVERSITY MEDICAL CENTER, priority 2015, published 2016).
“Also recorded” adds a separate entry of the source.

How the values were obtained:
cells = experiment: Amount of AP1903 needed in vitro for effective signaling of cells; format: cell-based
Description: The fixed dose of AP1903 for injection used, for example, may be 0.4 mg/kg intravenously infused over 2 hours. The amount of AP1903 needed in vitro for effective signaling of cells is about 10-100 nM (MW: 1412 Da). This equates to 14-140 μg/L or ˜0.014-0.14 mg/kg ([…]). The dosage may vary according to the application, and may, in certain examples, be more in the range of 0.1-10 nM, or in the range of 50-150 nM, 10-200 nM, 75-125 nM, 100-500 nM, 100-600 nM, 100-700 nM, 100-800 nM, or 100-900 nM. Doses up to 1 mg/kg were well-tolerated in the Phase I study of AP1903 described above.

[1] = tested on: inducible caspase-9 expressing T cells; experiment: CASPALLO and DOTTI trials: AP1903 given to subjects treated with T cells containing the iCaspase-9 suicide switch; format: in vivo, human
Description: The DOTTI trial is a follow-up study to the CASPALLO trial. Three subjects subsequently developed Grade I & II acute GVHD and were treated with a single dose of the dimerizing drug AP1903. Four subjects are alive at a median of 476 days after transplant (range 278-674 days), and who had received AP1903.

[2] = tested on: CD3+ΔCD19+ cells (iCasp9+ T cells); experiment: Phase I clinical trial of allodepleted T cells transduced with inducible caspase-9 suicide gene after haploidentical stem cell transplantation; format: in vivo, human
From the text: This example presents results of a phase 1 clinical trial using an alternative suicide gene strategy. Briefly, donor peripheral blood mononuclear cells were co-cultured with recipient irradiated EBV-transformed lymphoblastoid cells (40:1) for 72 hrs, allodepleted with a CD25 immunotoxin and then transduced with a retroviral supernatant carrying the iCasp9 suicide gene and a selection marker (ΔCD19); ΔCD19 allowed enrichment to >90% purity via immunomagnetic selection.
Patients developing grade 1 GvHD were treated with 0.4 mg/kg AP1903 as a 2-hour infusion. Protocols for administration of AP1903 to patients grade 1 GvHD were established as follows. Patients developing GvHD after infusion of allodepleted T cells are biopsied to confirm the diagnosis and receive 0.4 mg/kg of AP1903 as a 2 h infusion. […] Patients developing grades 2-4 GvHD were administered standard systemic immunosuppressive therapy per institutional guidelines, in addition to the AP1903 dimerizer drug.
Instructions for preparation and infusion: AP1903 for injection is obtained as a concentrated solution of 2.33 ml in a 3 ml vial, at a concentration of 5 mg/ml, (i.e., […] per vial). Prior to administration, the calculated dose was diluted to 100 mL in 0.9% normal saline for infusion. AP1903 for injection (0.4 mg/kg) in a volume of 100 ml was administered via IV infusion over 2 hours, using a non-DEHP, non-ethylene oxide sterilized infusion set and infusion pump.
Three patients received iCasp9^+ T cells after haplo-CD34^+ stem cell transplantation (SCT), at dose levels between about 1×10^6 to about 3×10^6 cells/kg.
Infused T cells were detected in vivo by flow cytometry (CD3^+ΔCD19^+) or qPCR as early as day 7 after infusion, with a maximum fold expansion of 170±5 (day 29±9 after infusion).

Cell A T cells (iCasp9) = experiment: In vivo Cell A response to rimiducid in NSG mice (flow cytometry of spleens); parameters: species or system NSG mouse; details: 24 hours after rimiducid 5 mg/kg i.p.; 42±1.1% in untreated mice; p<0.0001
Description: 16 mice received an i.v. injection of 1×10^7 Cell A T cells on Day 0 as outlined above. Forty eight hours later, eight of the mice were injected i.p. with rimiducid at 5 mg/kg to evaluate activation of iCasp9 and apoptosis of the Cell A T cells; the other eight mice were left untreated. […] Thus, the iCasp9 encoded within Cell A represents a functioning safety switch that can be triggered in vivo to eliminate Cell A cells.

[3] = tested on: Cell A T cells (iCasp9 suicide gene); experiment: Overnight culture of spleen and bone marrow cells from Cell A-treated animals with or without rimiducid; format: cell-based, NSG mouse; details: 10 nM rimiducid overnight; p<0.05
Description: A fraction of spleen and bone marrow cells were isolated from the Cell A-treated animals as analyzed above, and were cultured overnight with or without 10 nM rimiducid in order to determine the sensitivity of the suicide switch.

[4] = tested on: T cells transduced with the PRAME-TCR in combination with the iCasp9; experiment: PRAME reactivity of T cells transduced with PRAME-TCR in combination with iCasp9 after AP1903 treatment; format: cell-based, human; details: 100 nM AP1903 for 18 h (overnight)
Description: The TCRAV and TCRBV gene usage of clone AAV54 (also called clone 54 or HSS1) was determined using reverse transcriptase (RT)-PCR and sequencing^5. […]
FIG. 12, Different retroviral vectors encoding for the PRAME-TCR were transduced into virus specific T cells and the reactivity is measured against target cells loaded with different concentrations of the PRAME peptide and against two melanoma cell-lines: FM6 positive for HLA-A2 and PRAME, and M13046/2 positive for HLA-A2 but negative for PRAME. […]
FIG. 15 Different retroviral vectors encoding for the PRAME-TCR were transduced into virus specific T cells and the reactivity was measured against target cells (T2 cells) loaded with PRAME peptide and two PRAME positive and HLA-A2 positive melanoma cell-lines: 518.A2 and FM6, and one PRAME negative but HLA-A2 positive melanoma cell line M13046/2. […]

[5] = cited from earlier work
Ewing sarcoma cell lines = experiment: HLA-class I expression of Ewing sarcoma cell lines after interferon treatment; format: cell-based, human; details: 48 h, 300 IU/ml IFN-alpha or 100 IU/ml IFN-gamma
[6] = tested on: neuroblastoma (NB) cell lines; experiment: HLA-class I expression of neuroblastoma cell lines after interferon treatment; format: cell-based, human; details: 48 h, 300 IU/ml IFN-α or 100 IU/ml IFN-γ

| Molecule | amount of AP1903 needed for effective signaling, converted to dose (cells) [mg/kg] | amount of AP1903 needed in vitro for effective signaling of cells (cells) [nM] | amount of AP1903 needed in vitro for effective signaling of cells, converted (cells; MW 1412 Da) [µg/L] | elimination of inducible caspase-9 expressing T cells ([1]; 30 minutes from the end of a 2 hour intravenous infusion, CASPALLO trial) [%] | adverse events associated with AP1903 ([1]; CASPALLO and DOTTI trials) | acute GVHD after administration of AP1903 ([1]; four subjects, CASPALLO trial) | resolution of skin and liver aGvHD ([2]; after AP1903 administration) [h] | ablation of CD3+ΔCD19+ cells ([2]; within 30 minutes of infusion, two patients with grade I/II aGvHD, 0.4 mg/kg as 2-hour infusion) [%] | further reduction of CD3+ΔCD19+ cells ([2]; within 24 hours) | human T cells in spleen that were Vβ1+ (Cell A T cells (iCasp9)) [%] | fraction of Vβ1+ T cells recovered from spleen and bone marrow [3] | PRAME specific reactivity of T cells transduced with PRAME-TCR and iCasp9 after AP1903 [4] | well-tolerated doses ([5]; Phase I study) | adverse event considered possibly related to AP1903 ([5]; human, in vivo, 1 mg/kg) | AP1903 plasma levels versus dose ([5]; human, in vivo) | incidence of adverse events ([5]; human, in vivo) | serious adverse events ([5]; human, in vivo) | severity of adverse events ([5]; human, in vivo) | HLA-class I expression on the cell surface (Ewing sarcoma cell lines) | HLA-class I expression on the cell surface [6] |
| --- | --- | --- | --- | --- | --- | --- | --- | --- | --- | --- | --- | --- | --- | --- | --- | --- | --- | --- | --- | --- |
| CC[C@H](C(=O)N1CCCC[C@H]1C(=O)O[C@H](CCc1ccc(OC)c(OC)c1)c1cccc(OCC(=O)NCCNC(=O)COc2cccc([C@@H](CCc3ccc(OC)c(OC)c3)OC(=O)[C@@H]3CCCCN3C(=O)[C@@H](CC)c3cc(OC)c(OC)c(OC)c3)c2)c1)c1cc(OC)c(OC)c(OC)c1 (relative stereo) [AP1903, 2-Piperidinecarboxylic acid, 1-[(2S)-1-oxo-2-(3,4,5-trimethoxyphenyl)butyl]-, 1,2-ethanediylbis [imino(2-oxo-2,1-ethanediyl)oxy-3,1-phenylene[(1R)-3-(3,4-dimethoxyphenyl)propylidene]] ester, [2S-[1(R*),2R*[S*[S*[1(R*),2R*]]]]]-(9CI)] | 0.014 to 0.14 | 10 to 100 | 14 to 140 | ≥ 90 | No adverse events; also recorded: no immediate or delayed adverse events | rapidly abrogated | ≤ 24 | > 90 | further log reduction | 7.3±0.2 | significantly reduced | abrogated | up to 1 mg/kg | vasodilatation | directly proportional to dose | very low | No serious adverse events | mild | – | – |
| IFN-gamma: interferon used to treat tumor cell lines for 48 h (protein, UniProt P01579 24-161, looked up) Interferon gamma: QDPYVKEAENLKKYFNAGHSDVADNGTLFLGILKNWKEESDRKIMQSQIVSFYFKLFKNFKDDQSIQKSVETIKEDMNVKFFNSNKKKRDDFEKLTNYSVTDLNVQRKAIHELIQVMAELSPAAKTGKRKRSQMLFRG | – | – | – | – | – | – | – | – | – | – | – | – | – | – | – | – | – | – | increased | increased |
